Data set [1] concerns HeLa cells. In words: Cellular uptake of FITC-labeled CPPs by flow cytometry. Format: cell-based, Human. The conditions noted are these: for order of potency in intracellular translocation (dose-dependent uptake): 0, 0.5, 1, 2.5, 5 and 10 μM; for order of potency in intracellular translocation (dose-dependent uptake) / cellular uptake efficiency: average of three independent experiments; for cellular uptake efficiency: 1 μM peptide, flow cytometry MFI, serum-containing DMEM, 37 °C. As to the method: For assessing the uptake of CPP candidates by HeLa cells, cells were seeded onto 6-well plates (1.0 × 10^6 cells/well). […] Cells were washed two times with phosphate-buffered saline (PBS), incubated in trypsin-EDTA solution (0.01% trypsin) at 37 °C for 10 min to digest extracellular proteins, washed two times with ice-cold PBS, and finally resuspended in 500 μL of ice-cold PBS for flow cytometry assays. For endocytosis inhibitor treatments, cells were pre-incubated with various inhibitors (50 μg heparin, 50 μM CPZ, 100 μM CQ, 1 mM MβCD, 30 μg dynasore, or 50 μM EIPA) in serum-containing medium for 30 min before AA3H (1 μM) was added. The sample for flow cytometry analysis was prepared as described above. For the analysis of peptide internalization, a GUAVA flow cytometry system (Merck Millipore, Darmstadt, Germany) with the FL-1 channel for measuring fluorescence in GuavaSoft 2.6 was used according to the manufacturer’s instructions.
On the technique in general: In flow cytometry, cells or beads pass a laser one at a time.

The test system of data set [2] is HeLa cells. In words: Subcellular localization by confocal fluorescence microscopy. The conditions noted are these: AA3H 1 μM, 4 h, organelle-specific staining. Type of data set: cell-based, Human. Here is the method: To visualize the cellular uptake of a peptide using confocal fluorescence microscopy, HeLa cells were seeded onto confocal bottom dish 35-mm plates (SPL, Gyeonggi-do, Korea) and incubated with AA3H (1 μM) for 4 h. Lysosomes and nuclei of AA3H-treated cells were stained with LysoTracker (Life Technologies, Carlsbad, CA, USA; 1 μg/mL for 30 min) and Hoechst (1 μg/mL for 5 min), respectively. For staining ER and Golgi, CellLight Reagents BacMam 2.0 (Life Technologies, Carlsbad, CA, USA) were used. Cells were cultured in confocal dishes for 24 h, transfected with red fluorescence protein (RFP) for 24 h, and treated with AA3H (1 μM) for 4 h. After washing two times with PBS, the intracellular fluorescence of HeLa cells was imaged using confocal laser scanning microscopy (LSM 700, Carl Zeiss, Jena, Germany).

For data set [3], the system named is cells. In words: Uptake kinetics (half-time of internalization). Format: cell-based. To be noted: uptake kinetics of AA3H.
A short description of data set [4]: Liposome experiment (interaction of FITC-labeled AA3H with phospholipid liposomes). Type of data set: binding. To be noted: liposomes in HBS pH 7.5, 4 h at room temperature, flow cytometric analysis (Supplementary Fig. S3). Here is the method:
Liposome experiment. Phospholipids dissolved in chloroform (L-alpha-phosphatidylcholine: PC, L-alpha-phosphatidylserine: PS, and L-alpha-phosphatidylethanolamine: PE) were purchased 1 from Avanti Polar Lipids. Liposomes were prepared by following a reported procedure . After preparation of phospholipid mixtures with appropriate molar ratios (PC/PS: 8/2 and PC/PE/PS: 4/4/2), the mixtures were dried by removing the solvent. The residues were dissolved in HBS (20 mM HEPES/NaOH, pH 7.5, 100 mM NaCl, 0.02% (w/v) sodium azide) and vortexed to completely resuspend phospholipids. Then, the suspension was sonicated until to have clear solution. The prepared vesicles was incubated with AA3H-CPP (FITC labelled) for 4 h at room temperature and the mixture was centrifuged at 16,000×g for 10 min at 4°C before flow cytometric analysis.
Supplementary Fig. S3. (A) Sizes of liposomes determined by dynamic light scattering. (B) Flow cytometric analysis on the interaction between FITC-labeled AA3H and liposomes. […]

The test system of data set [5] is HeLa cells. In words: Cellular uptake mechanism of AA3H (heparin, low temperature, endocytosis inhibitors), flow cytometry. Type of data set: cell-based, Human. Here is the method: For assessing the uptake of CPP candidates by HeLa cells, cells were seeded onto 6-well plates (1.0 × 10^6 cells/well). After 24 h, cells were washed two times with serum-free DMEM and incubated with CPPs at indicated concentrations (0.1, 1, 10 μM) in serum-containing DMEM at 37 °C. Cells were washed two times with phosphate-buffered saline (PBS), incubated in trypsin-EDTA solution (0.01% trypsin) at 37 °C for 10 min to digest extracellular proteins, washed two times with ice-cold PBS, and finally resuspended in 500 μL of ice-cold PBS for flow cytometry assays. For endocytosis inhibitor treatments, cells were pre-incubated with various inhibitors (50 μg heparin, 50 μM CPZ, 100 μM CQ, 1 mM MβCD, 30 μg dynasore, or 50 μM EIPA) in serum-containing medium for 30 min before AA3H (1 μM) was added. The sample for flow cytometry analysis was prepared as described above. For the analysis of peptide internalization, a GUAVA flow cytometry system (Merck Millipore, Darmstadt, Germany) with the FL-1 channel for measuring fluorescence in GuavaSoft 2.6 was used according to the manufacturer’s instructions.

Data set [6] relates to HeLa cells. In words: Intracellular uptake of CPPs in the presence or absence of serum, flow cytometry. The conditions noted are these: peptide 1 μM, with or without 10% mouse serum, 4 h. Type of data set: cell-based, Human. Here is the method:
Samples were prepared as described for cellular uptake above.

Data set [7] relates to cells. To be noted: uptake kinetics of TAT; cited from earlier work.
The next data set concerns Raw 264.7 cells. In words: Immunogenicity assay (IL-6 release, ELISA). Type of data set: cell-based, Murine. To be noted: 24 h; AA3H 10 μM or LPS 10 μg/mL; mouse IL-6 ELISA; average of three; non-treated control 20 pg/mL. Here is the method: Raw 264.7 cells were seeded into 24-well plates and cultured for 24 h. Cells were grown to 80% confluence and treated with lipopolysaccharides (LPS, 10 μg/mL) as a positive control. After incubation of AA3H peptide (10 μM) with cells for 24 h, supernatants were transferred to 1.5 mL tubes and centrifuged at 10,000 × g for 10 min at 4 °C. For the detection of interleukin-6 (IL-6) a mouse IL-6 ELISA kit (Thermo Scientific, Waltham, MA, USA) was used. Results from triplicate experiments were analyzed by Prism software (GraphPad, La Jolla, CA, USA). Data are presented as mean ± standard deviation (SD).

Like-named read-outs stand apart in the source and are kept apart here. Where no end group is shown, it is not given here. The star is where a group is joined. FITC = O=C1OC2(c3ccc(O)cc3Oc3cc(O)ccc32)c2ccc(NC(=S)*)cc21

On to “{FITC}-MAWWKSWIEQ [AA8H, FITC-labeled N-terminus peptide of an annexin A isoform]”, for which the “order of potency in intracellular translocation (dose-dependent uptake)” value (from here on “order of potency”) with HeLa cells [1] (HeLa cells, flow cytometry) was “AA3H > AA5H > AA8H > AA13H > AA4H”. In addition, the cellular uptake efficiency entry with HeLa cells [1] (HeLa cells) is “significant cellular uptake efficiency”.
For the substance {FITC}-MASIWVGHRG [AA3H], the subcellular localization result in the data set on HeLa cells [2] is “localized in the cytoplasm but not in the nucleus”. The “t0.5 (half-time of internalization)” value in the data set on cells [3] is ~ 2 h. Also, in data set [4], the “binding to phospholipids known to interact with annexin III” value is given as “found to also bind AA3H”. In the data set on HeLa cells [5] (50 μg/mL heparin sulfate 30 min pre-treatment, then AA3H 4 h, relative to delivery without heparin, average of three), the “decrease of intracellular delivery after heparin sulfate” value was 45%. For the same substance, in the data set on HeLa cells [5] (4 °C for 2 h vs 37 °C control, flow cytometry), the “cellular uptake at 4 °C lower than at 37 °C” value is “approximately 66%”. Besides, the “decrease of uptake with dynasore” value with HeLa cells [5] (30-min pre-treatment, 30 μg dynasore, AA3H 1 μM) came to 57%. Besides, in the data set on HeLa cells [5] (30-min pre-treatment, 50 μM CPZ, AA3H 1 μM, serum-containing medium), the “decrease in uptake with chlorpromazine (CPZ)” value came out at 23.5%. For the same substance, in the data set with HeLa cells [5] (30-min pre-treatment, 50 μM EIPA, AA3H 1 μM), the “effect of EIPA (macropinocytosis inhibitor) on peptide delivery” value is “significant inhibition of peptide delivery”. In the data set with HeLa cells [5] (30-min pre-treatment, 100 μM CQ, AA3H 1 μM, ascribed to dequenching of fluorescein, not to uptake), the “increase in mean fluorescence intensity with chloroquine (CQ)” value came to 20.5%. Besides, in the data set on HeLa cells [5] (30-min pre-treatment, 1 mM MβCD, AA3H 1 μM), the “reduction of uptake with methyl-β-cyclodextrin (MβCD)” value is reported as 32%. Besides, in the data set on HeLa cells [5] (30-min pre-treatment, AA3H 1 μM), the “reduction of uptake with nystatin (NYS)” value was 15%. Also, the “order of potency” value in the data set on HeLa cells [1] (HeLa cells, flow cytometry) is reported as “AA3H > AA5H > AA8H > AA13H > AA4H”. Further, the cellular uptake efficiency entry in the data set with HeLa cells [1] (HeLa cells) was “significant cellular uptake efficiency”. Further, the “cellular uptake compared with the fully cationic R9 peptide” value with HeLa cells [1] (HeLa cells (Supplementary Fig. S1A)) is “much lower cellular uptake”. Besides, the “uptake efficiency compared with TAT” value in the data set on HeLa cells [1] (HeLa cells, flow cytometry (Fig. 2C)) is reported as “delivered into the cells better than TAT”. Besides, the “delivery efficiency in the presence of serum” value in the data set on HeLa cells [6] is “not considerably affected”.
As to “{FITC}-RRRQQQQQQRRR [PLP, protein linking peptide containing multiple arginine residues, FITC-labeled]”, the “cellular uptake of PLP-conjugated CPPs” value in the data set on HeLa cells [1] (flow cytometry, fluorescence label of the peptide (Fig. 8B)) is reported as “not as high as with AA3H conjugation”.
“{FITC}-MATKGGTVKA [AA4H, FITC-labeled N-terminus peptide of an annexin A isoform]”: in the data set on HeLa cells [1] (HeLa cells, flow cytometry), the “order of potency” value is listed as “AA3H > AA5H > AA8H > AA13H > AA4H”. Moreover, the cellular uptake efficiency entry with HeLa cells [1] (HeLa cells) is on record as “significant cellular uptake efficiency”.
Consider “FITC-YGRKKRRQRRR [TAT47-58, widely used conventional CPP, TAT peptide of human immunodeficiency virus, FITC-labeled, reference compound]”, for which the “t0.5 (half-time of internalization)” value in the data set on cells [7] is 1 min. For the same substance, the “delivery efficiency in the presence of serum” value in the data set with HeLa cells [6] is “significantly lowered efficiency”.
Turning to “{FITC}-MAQVLRGTVT [AA5H, FITC-labeled N-terminus peptide of an annexin A isoform]”, the “order of potency” value in the data set on HeLa cells [1] (HeLa cells, flow cytometry) was “AA3H > AA5H > AA8H > AA13H > AA4H”. In the data set with HeLa cells [1] (HeLa cells), the cellular uptake efficiency entry is “significant cellular uptake efficiency”.
As for lipopolysaccharide [LPS], in the data set on Raw 264.7 cells, the “IL-6 released into the culture medium” value stood at 373 pg/mL.
Take “{FITC}-MGNRHAKASS [AA13H, FITC-labeled N-terminus peptide of an annexin A isoform]”: the “order of potency” value in the data set on HeLa cells [1] (HeLa cells, flow cytometry) is “AA3H > AA5H > AA8H > AA13H > AA4H”. In the data set on HeLa cells [1] (HeLa cells), the cellular uptake efficiency entry was “significant cellular uptake efficiency”.

These data come from article PMC4481774, “Discovery of a non-cationic cell penetrating peptide derived from membrane-interacting human proteins and its potential as a protein delivery carrier” (Scientific Reports, 2015).
